Reference: patent US20160090571A1, “CULTURE MEDIA AND METHODS FOR CULTURING MICROORGANISMS” (Orior, LLC, priority 2014, published 2016)

Test system: microorganism associated with Morgellons disease
Assay: Drug sensitivity / growth inhibition testing of the cultured microorganism
Format: cell-based
Details: antibiotic added to solution
Text: In other studies, Itraconazole and Posaconazole were each added to the culture medium followed by the organism.

Row | Molecule | inhibitory effect on organism growth
1 | CC1(C)S[C@@H]2[C@H](NC(=O)[C@H](N)c3ccccc3)C(=O)N2[C@H]1C(=O)O [Ampicillin] | no inhibitory effect
2 | CC[C@H]1OC(=O)[C@H](C)[C@@H](O[C@H]2C[C@@](C)(OC)[C@@H](O)[C@H](C)O2)[C@H](C)[C@@H](O[C@@H]2O[C@H](C)C[C@H](N(C)C)[C@H]2O)[C@](C)(O)C[C@@H](C)C(=O)[C@H](C)[C@@H](O)[C@]1(C)O [Erythromycin] | no inhibitory effect
3 | Penicillin | no inhibitory effect
4 | CN(C)[C@@H]1C(O)=C(C(N)=O)C(=O)[C@@]2(O)C(O)=C3C(=O)c4c(O)cccc4[C@@](C)(O)[C@H]3C[C@@H]12 [Tetracycline] | no inhibitory effect
5 | Neomycin | no inhibitory effect
6 | O=C(O)c1cn(C2CC2)c2cc(N3CCNCC3)c(F)cc2c1=O [Ciprofloxacin] | no inhibitory effect

Same assay, conditions: antifungal agent added to the culture medium followed by the organism

Row | Molecule | inhibition of growth
7 | CC[C@@H]([C@H](C)O)n1ncn(-c2ccc(N3CCN(c4ccc(OC[C@@H]5CO[C@@](Cn6cncn6)(c6ccc(F)cc6F)C5)cc4)CC3)cc2)c1=O [Posaconazole] | Neither antifungal agent was shown to inhibit growth
